Test results taken from publication PMC12484723, “COOKIE-Pro: covalent inhibitor binding kinetics profiling on the proteome scale” (Nature Communications, 2025).

Experiments:
TEC kinase = target: T1, TEC kinase (Homo sapiens, UniProt P42680); test: COOKIE-Pro competition chemoproteomics in permeabilized Ramos cells (kinact, KI); format: cell-based
T1 sequence (P42680 1-631): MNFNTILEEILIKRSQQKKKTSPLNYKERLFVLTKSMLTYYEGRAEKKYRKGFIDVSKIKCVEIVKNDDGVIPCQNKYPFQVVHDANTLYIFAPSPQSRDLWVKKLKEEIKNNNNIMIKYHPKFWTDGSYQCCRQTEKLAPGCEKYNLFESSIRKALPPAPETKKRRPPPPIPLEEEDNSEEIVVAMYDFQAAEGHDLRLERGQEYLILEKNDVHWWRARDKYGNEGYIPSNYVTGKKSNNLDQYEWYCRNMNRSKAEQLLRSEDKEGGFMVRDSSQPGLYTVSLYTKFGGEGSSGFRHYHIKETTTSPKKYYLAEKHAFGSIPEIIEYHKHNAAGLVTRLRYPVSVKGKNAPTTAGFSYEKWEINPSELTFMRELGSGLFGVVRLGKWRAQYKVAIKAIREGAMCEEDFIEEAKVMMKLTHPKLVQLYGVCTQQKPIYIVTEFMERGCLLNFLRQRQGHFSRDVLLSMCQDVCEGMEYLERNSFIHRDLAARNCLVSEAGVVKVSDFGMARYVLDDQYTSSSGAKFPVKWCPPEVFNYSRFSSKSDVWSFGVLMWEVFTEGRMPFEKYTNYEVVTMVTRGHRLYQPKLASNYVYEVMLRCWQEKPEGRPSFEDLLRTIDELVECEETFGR

BLK = BLK (Homo sapiens, UniProt P51451); test: as above; format: cell-based
Chain of BLK (P51451 2-505): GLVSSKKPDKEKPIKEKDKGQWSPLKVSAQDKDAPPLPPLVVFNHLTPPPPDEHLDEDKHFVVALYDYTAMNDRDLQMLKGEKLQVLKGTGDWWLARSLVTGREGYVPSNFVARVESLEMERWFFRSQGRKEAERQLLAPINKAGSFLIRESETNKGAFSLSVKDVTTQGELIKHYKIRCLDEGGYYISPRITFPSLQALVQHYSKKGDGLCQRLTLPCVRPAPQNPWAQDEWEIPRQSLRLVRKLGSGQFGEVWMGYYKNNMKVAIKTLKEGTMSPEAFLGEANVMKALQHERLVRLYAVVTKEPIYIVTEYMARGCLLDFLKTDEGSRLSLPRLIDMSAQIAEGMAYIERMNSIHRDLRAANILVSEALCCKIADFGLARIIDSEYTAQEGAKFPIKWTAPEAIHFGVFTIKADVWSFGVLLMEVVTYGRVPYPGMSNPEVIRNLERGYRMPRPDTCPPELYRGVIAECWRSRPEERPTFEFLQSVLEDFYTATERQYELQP

KI (inactivation) (TEC kinase): 233 nM
KI (inactivation) (BLK): 28 nM
Structure (SMILES): C=CC(=O)N1CCC[C@@H](n2nc(-c3ccc(Oc4ccccc4)cc3)c3c(N)ncnc32)C1 [ibrutinib]
